Reference: ChEMBL document CHEMBL3044825, “Synthesis and in vitro microbial activities of amides of pyridoquinolone” (2011)

How the values were obtained:
Type in all cases: functional
Settings in all cases: read-out: IZ
Candida albicans = test: Antifungal activity against Candida albicans at 100 ug/ml by cup-plate method
Bacillus subtilis = test: Antibacterial activity against Bacillus subtilis at 100 ug/ml by cup plate method
Staphylococcus aureus = test: Antibacterial activity against Staphylococcus aureus at 100 ug/ml by cup-plate method
Pseudomonas aeruginosa = test: Antibacterial activity against Pseudomonas aeruginosa at 100 ug/ml by cup-plate method
Escherichia coli = test: Antibacterial activity against Escherichia coli at 100 ug/ml by cup-plate method

Row | SMILES | zone of inhibition at 100 µg/mL (Candida albicans) [mm] | zone of inhibition at 100 µg/mL (Bacillus subtilis) [mm] | zone of inhibition at 100 µg/mL (Staphylococcus aureus) [mm] | zone of inhibition at 100 µg/mL (Pseudomonas aeruginosa) [mm] | zone of inhibition at 100 µg/mL (Escherichia coli) [mm]
1 | Cc1ccc(NS(=O)(=O)c2ccc(NC(=O)c3cn(CCO)c4c(cc(O)c5ncccc54)c3=O)cc2)cc1 | 0 | 6 | 5 | 0 | 5
2 | O=C(NC(=S)Nc1ccccc1[N+](=O)[O-])c1cn(CCO)c2c(cc(O)c3ncccc32)c1=O | 1 | 5 | 0 | 4 | 5
3 | O=C(NC(=S)Nc1cccc([N+](=O)[O-])c1)c1cn(CCO)c2c(cc(O)c3ncccc32)c1=O | 0 | 7 | 7 | 10 | 9
4 | Cc1ccccc1NC(=S)NC(=O)c1cn(CCO)c2c(cc(O)c3ncccc32)c1=O | 0 | 7 | 5 | 0 | 6
5 | Cc1ccc(NC(=S)NC(=O)c2cn(CCO)c3c(cc(O)c4ncccc43)c2=O)cc1 | 1 | 6 | 0 | 4 | 6
6 | O=C(NC(=S)Nc1cccc(O)c1)c1cn(CCO)c2c(cc(Cl)c3ncccc32)c1=O | 2 | 9 | 8 | 6 | 8
7 | COc1ccccc1NC(=S)NC(=O)c1cn(CCO)c2c(cc(Cl)c3ncccc32)c1=O | 0 | 6 | 0 | 3 | 5
8 | COc1ccc(NC(=S)NC(=O)c2cn(CCO)c3c(cc(Cl)c4ncccc43)c2=O)cc1 | 2 | 9 | 8 | 6 | 8
9 | O=C(NC(=S)Nc1cccc([N+](=O)[O-])c1)c1cn(CCO)c2c(cc(Cl)c3ncccc32)c1=O | 1 | 6 | 8 | 8 | 0
10 | Cc1ccc(NC(=S)NC(=O)c2cn(CCO)c3c(cc(Cl)c4ncccc43)c2=O)cc1 | 0 | 6 | 6 | 0 | 6
11 | O=C(NC(=S)Nc1ccc(O)cc1)c1cn(CCO)c2c(cc(O)c3ncccc32)c1=O | 0 | 7 | 6 | 6 | 6
12 | COc1ccccc1NC(=S)NC(=O)c1cn(CCO)c2c(cc(O)c3ncccc32)c1=O | 0 | 0 | 4 | 4 | 0
13 | Cc1ccc(NS(=O)(=O)c2ccc(NC(=O)c3cn(CCO)c4c(cc(Cl)c5ncccc54)c3=O)cc2)cc1 | 1 | 6 | 5 | 7 | 5
14 | N#Cc1cc([N+](=O)[O-])ccc1NS(=O)(=O)c1ccc(NC(=O)c2cn(CCO)c3c(cc(Cl)c4ncccc43)c2=O)cc1 | 2 | 9 | 8 | 8 | 8
15 | O=C(Nc1ccc(S(=O)(=O)Nc2ccc(Cl)cc2)cc1)c1cn(CCO)c2c(cc(O)c3ncccc32)c1=O | 0 | 6 | 0 | 4 | 4
16 | COc1ccccc1NS(=O)(=O)c1ccc(NC(=O)c2cn(CCO)c3c(cc(O)c4ncccc43)c2=O)cc1 | 1 | 8 | 6 | 6 | 0
17 | O=C(Nc1ccc(S(=O)(=O)Nc2cccc([N+](=O)[O-])c2)cc1)c1cn(CCO)c2c(cc(O)c3ncccc32)c1=O | 2 | 8 | 8 | 7 | 8

Row | SMILES | zone of inhibition at 100 µg/mL (Candida albicans) [mm] | zone of inhibition at 100 µg/mL (Bacillus subtilis) [mm] | zone of inhibition at 100 µg/mL (Staphylococcus aureus) [mm] | zone of inhibition at 100 µg/mL (Pseudomonas aeruginosa) [mm] | zone of inhibition at 100 µg/mL (Escherichia coli) [mm]
18 | Cc1ccccc1NS(=O)(=O)c1ccc(NC(=O)c2cn(CCO)c3c(cc(O)c4ncccc43)c2=O)cc1 | 0 | 6 | 4 | 4 | 0
19 | N#Cc1cc([N+](=O)[O-])ccc1NS(=O)(=O)c1ccc(NC(=O)c2cn(CCO)c3c(cc(O)c4ncccc43)c2=O)cc1 | 2 | 6 | 8 | 8 | 6
20 | O=C(Nc1cccc([N+](=O)[O-])c1)c1cn(CCO)c2c(cc(O)c3ncccc32)c1=O | 2 | 8 | 7 | 10 | 8
21 | O=C(Nc1ccc([N+](=O)[O-])cc1)c1cn(CCO)c2c(cc(O)c3ncccc32)c1=O | 0 | 7 | 8 | 6 | 6
22 | Cc1cccc(NC(=O)c2cn(CCO)c3c(cc(O)c4ncccc43)c2=O)c1 | 1 | 6 | 5 | 6 | 0
23 | Cc1ccc(C)c(NC(=O)c2cn(CCO)c3c(cc(O)c4ncccc43)c2=O)c1 | 2 | 9 | 8 | 8 | 9
24 | O=C(Nc1ccc(S(=O)(=O)Nc2ccccc2)cc1)c1cn(CCO)c2c(cc(Cl)c3ncccc32)c1=O | 2 | 10 | 8 | 7 | 6
25 | O=C(Nc1ccc(S(=O)(=O)Nc2ccc(Cl)cc2)cc1)c1cn(CCO)c2c(cc(Cl)c3ncccc32)c1=O | 1 | 7 | 6 | 0 | 8
26 | O=C(Nc1ccc(S(=O)(=O)Nc2cccc([N+](=O)[O-])c2)cc1)c1cn(CCO)c2c(cc(Cl)c3ncccc32)c1=O | 2 | 8 | 6 | 5 | 7
27 | Cc1cccc(NS(=O)(=O)c2ccc(NC(=O)c3cn(CCO)c4c(cc(Cl)c5ncccc54)c3=O)cc2)c1 | 0 | 6 | 0 | 4 | 0
28 | COc1ccc(NC(=O)c2cn(CCO)c3c(cc(Cl)c4ncccc43)c2=O)cc1 | 2 | 6 | 6 | 6 | 0
29 | Cc1ccccc1NC(=O)c1cn(CCO)c2c(cc(Cl)c3ncccc32)c1=O | 0 | 5 | 0 | 4 | 7
30 | Cc1ccc(NC(=O)c2cn(CCO)c3c(cc(Cl)c4ncccc43)c2=O)cc1 | 0 | 7 | 5 | 5 | 4
31 | Cc1ccc(C)c(NC(=O)c2cn(CCO)c3c(cc(Cl)c4ncccc43)c2=O)c1 | 0 | 9 | 8 | 8 | 10
32 | O=C(Nc1ccccc1)c1cn(CCO)c2c(cc(O)c3ncccc32)c1=O | 1 | 6 | 7 | 8 | 8
33 | O=C(Nc1cccc(Cl)c1)c1cn(CCO)c2c(cc(O)c3ncccc32)c1=O | 0 | 6 | 0 | 4 | 4
34 | COc1ccccc1NC(=O)c1cn(CCO)c2c(cc(O)c3ncccc32)c1=O | 1 | 8 | 6 | 0 | 6
